From US20200129528A1, “METHODS FOR TREATING BLOOD PRESSURE CONDITIONS USING AMINOSTEROL COMPOSITIONS” (Enterin, Inc., priority 2018, published 2020)

Experiments:
[1] = mice, following systemic administration; into the duodenum through the biliary tract; cited from earlier work
[2] = test system: IPANs (intrinsic primary afferent neuron); conditions: perfusion through lumen of isolated bowel segment; cited from earlier work
[3] = cited from earlier work
[4] = Pharmacokinetics of orally administered squalamine (ENT-01) in Stage 1; format: in vivo, human; conditions: PD patients, this study
Experimental: PK data were collected on the 10 patients enrolled in Stage 1 and 10 patients enrolled in Stage 2 to determine the extent of systemic absorption. In Stage 1, PK data were obtained at each visit, pre-medication, at 1, 2, 4, 8 and 24 hours (Table 10). In Stage 2, PK was measured on days 1 and 6 of the randomization period pre-medication, at 1, 2, 4 and 8 hours (Table 11).
The mean Cmax, Tmax and T1/2 and AUC of the squalamine ion following squalamine (ENT-01) oral dosing for Stage 1 patients. The PK analyses are only approximate, as the lower limit of the validated concentration range was 10 ng/ml; most of the measured concentrations fell below that value. The mean Cmax, Tmax and T1/2 and AUC of the squalamine ion following squalamine (ENT-01) oral dosing for Stage 2 patients. The PK analyses are only approximate, as the lower limit of the validated concentration range was 0.5 ng/ml.

[5] = test system: mice with constipation due to overexpression of human αS; conditions: oral; cited from earlier work

## CC(C)[C@@H](CC[C@@H](C)[C@H]1CC[C@H]2[C@@H]3[C@H](O)C[C@H]4C[C@@H](NCCCNCCCCN)CC[C@]4(C)[C@H]3CC[C@]12C)OS(=O)(=O)O [squalamine]
[1]
  route of clearance: cleared by the liver and excreted as the intact molecule
[2]
  effect on propulsive peristaltic contractions: increasing the frequency of propulsive peristaltic contractions
[3]; published clinical trials involving systemic administration
  drug related GI toxicology: has not been reported
[3]; systemic blood levels one thousand-fold greater than after oral dosing, prior studies
  effect of intravenous administration on gastrointestinal motility: not associated with increased gastrointestinal motility
[4]
  systemic absorption following oral administration: not significantly absorbed into the systemic circulation
[5]
  effect on gastro-intestinal motility: stimulates gastro-intestinal motility
